# Measured values taken from ChEMBL document CHEMBL3399967, “Design and discovery of 2-oxochromene derivatives as liver X receptor β-selective agonists” (Bioorg Med Chem Lett, 2015).
# Experiments:
# [1] = biological target: T1, Oxysterols receptor LXR-alpha (Homo sapiens, UniProt Q13133); test: Agonist activity at Gal4-tagged LXRalpha (unknown origin) expressed in CHOK1 cells after 24 hrs by luciferase reporter gene assay; format: cell-based, CHO-K1
# T1 sequence (Q13133 whole entry): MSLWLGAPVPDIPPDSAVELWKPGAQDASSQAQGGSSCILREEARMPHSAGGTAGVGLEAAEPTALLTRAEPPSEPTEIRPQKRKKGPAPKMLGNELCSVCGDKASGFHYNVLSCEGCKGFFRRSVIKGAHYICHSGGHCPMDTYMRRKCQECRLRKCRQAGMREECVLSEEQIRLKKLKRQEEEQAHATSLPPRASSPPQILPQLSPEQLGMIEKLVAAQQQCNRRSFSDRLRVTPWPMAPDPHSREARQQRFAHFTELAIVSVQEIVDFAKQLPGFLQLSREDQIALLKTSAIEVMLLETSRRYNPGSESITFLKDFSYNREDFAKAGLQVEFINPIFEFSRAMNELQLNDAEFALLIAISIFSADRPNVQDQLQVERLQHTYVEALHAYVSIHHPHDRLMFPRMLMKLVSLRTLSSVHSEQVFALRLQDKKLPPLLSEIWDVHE
# [2] = biological target: T2, Oxysterols receptor LXR-beta (Homo sapiens, UniProt P55055); test: Agonist activity at Gal4-tagged LXRbeta (unknown origin) expressed in CHOK1 cells after 24 hrs by luciferase reporter gene assay; format: cell-based, CHO-K1
# T2 sequence (P55055 whole entry): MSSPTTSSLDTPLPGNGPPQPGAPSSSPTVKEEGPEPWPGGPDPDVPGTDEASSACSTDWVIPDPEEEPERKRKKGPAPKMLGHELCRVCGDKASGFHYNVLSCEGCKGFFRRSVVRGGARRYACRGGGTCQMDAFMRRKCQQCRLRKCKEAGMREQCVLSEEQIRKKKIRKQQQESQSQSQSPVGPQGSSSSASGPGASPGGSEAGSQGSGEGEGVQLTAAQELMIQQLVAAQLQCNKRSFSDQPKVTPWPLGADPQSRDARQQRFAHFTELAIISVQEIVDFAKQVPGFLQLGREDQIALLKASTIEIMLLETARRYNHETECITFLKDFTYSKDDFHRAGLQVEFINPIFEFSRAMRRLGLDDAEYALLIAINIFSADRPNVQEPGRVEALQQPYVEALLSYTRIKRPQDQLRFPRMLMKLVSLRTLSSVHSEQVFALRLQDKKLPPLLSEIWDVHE
# Hamster [3] = test: Effect on HDL-C level in high-fat-and-cholesterol diet fed Male Bio F1B hamster plasma at 30 mg/kg, po relative to control; format: functional, Cricetinae
# Hamster [4] = test: Effect on total cholesterol level in high-fat-and-cholesterol diet fed Male Bio F1B hamster plasma at 300 mg/kg, po relative to control; format: functional, Cricetinae
# Hamster [5] = test: Effect on total cholesterol level in high-fat-and-cholesterol diet fed Male Bio F1B hamster plasma at 100 mg/kg, po relative to control; format: functional, Cricetinae
# Hamster [6] = test: Effect on area of lipid accumulation in high-fat-and-cholesterol diet fed Male Bio F1B hamster aortic arch at 100 mg/kg, po relative to control; format: functional, Cricetinae, Pharyngeal arch artery
# Hamster [7] = test: Effect on Plasma triglyceride level in high-fat-and-cholesterol diet fed Male Bio F1B hamster at 30 mg/kg, po relative to control; format: organism-based; parameters: dose 30 mg/kg, route oral; conditions: cricetinae, in vivo
# Hamster [8] = test: Effect on total cholesterol level in high-fat-and-cholesterol diet fed Male Bio F1B hamster plasma at 30 mg/kg, po relative to control; format: functional, Cricetinae
# [9] = Plasma concentration in Golden Syrian hamster at 300 mg/kg, po after 0.5 hrs; format: ADME, organism-based, Mesocricetus auratus; parameters: dose 300 mg/kg, route oral
# [10] = Plasma concentration in Golden Syrian hamster at 300 mg/kg, po after 2 hrs; format: ADME, organism-based, Mesocricetus auratus; parameters: dose 300 mg/kg, route oral
# Hamster [11] = test: Effect on area of lipid accumulation in high-fat-and-cholesterol diet fed Male Bio F1B hamster aortic arch at 300 mg/kg, po relative to control; format: functional, Cricetinae, Pharyngeal arch artery
# Syrian golden hamster = test: Plasma concentration in Golden Syrian hamster at 100 mg/kg, po; format: ADME, organism-based, Mesocricetus auratus; parameters: dose 100 mg/kg, route oral; conditions: in vivo
# Hamster [12] = test: Effect on Plasma triglyceride level in high-fat-and-cholesterol diet fed Male Bio F1B hamster at 300 mg/kg, po relative to control; format: organism-based; parameters: dose 300 mg/kg, route oral; conditions: cricetinae, in vivo
# Hamster [13] = test: Effect on HDL-C level in high-fat-and-cholesterol diet fed Male Bio F1B hamster plasma at 100 mg/kg, po relative to control; format: functional, Cricetinae
# Hamster [14] = test: Effect on HDL-C level in high-fat-and-cholesterol diet fed Male Bio F1B hamster plasma at 300 mg/kg, po relative to control; format: functional, Cricetinae
# Hamster [15] = test: Effect on Plasma triglyceride level in high-fat-and-cholesterol diet fed Male Bio F1B hamster at 100 mg/kg, po relative to control; format: organism-based; parameters: dose 100 mg/kg, route oral; conditions: cricetinae, in vivo
# [16] = Plasma concentration in Golden Syrian hamster at 300 mg/kg, po after 1 hr; format: ADME, organism-based, Mesocricetus auratus; parameters: dose 300 mg/kg, route oral
# Hamster [17] = test: Effect on area of lipid accumulation in high-fat-and-cholesterol diet fed Male Bio F1B hamster aortic arch at 30 mg/kg, po relative to control; format: functional, Cricetinae
# HepG2 [18] = test: Ratio of induction of ABCA1 mRNA expression to SREBP-1c mRNA expression in human HepG2 cells at 5 uM; format: functional
# HepG2 [19] = test: Induction of SREBP-1c mRNA expression in human HepG2 cells at 5 uM relative to control; format: functional
# HepG2 [20] = test: Induction of ABCA1 mRNA expression in human HepG2 cells at 5 uM relative to control; format: functional
# Hamster [21] = test: Effect on Plasma triglyceride level in high-fat-and-cholesterol diet fed Male Bio F1B hamster at 10 mg/kg, po relative to control; format: organism-based; parameters: dose 10 mg/kg, route oral; conditions: cricetinae, in vivo
# Hamster [22] = test: Effect on HDL-C level in high-fat-and-cholesterol diet fed Male Bio F1B hamster plasma at 3 to 10 mg/kg, po relative to control; format: functional, Cricetinae; conditions: dose mg/kg 3-10
# Hamster [23] = test: Effect on Plasma triglyceride level in high-fat-and-cholesterol diet fed Male Bio F1B hamster at 3 mg/kg, po relative to control; format: organism-based; parameters: dose 3 mg/kg, route oral; conditions: cricetinae, in vivo
# Hamster [24] = test: Effect on total cholesterol level in high-fat-and-cholesterol diet fed Male Bio F1B hamster plasma at 10 mg/kg, po relative to control; format: functional, Cricetinae
# Hamster [25] = test: Effect on HDL-C level in high-fat-and-cholesterol diet fed Male Bio F1B hamster plasma at 3 mg/kg, po relative to control; format: functional, Cricetinae
# Hamster [26] = test: Effect on area of lipid accumulation in high-fat-and-cholesterol diet fed Male Bio F1B hamster aortic arch at 10 mg/kg, po relative to control; format: functional, Cricetinae
# Hamster [27] = test: Effect on HDL-C level in high-fat-and-cholesterol diet fed Male Bio F1B hamster plasma at 10 mg/kg, po relative to control; format: functional, Cricetinae
# Hamster [28] = test: Effect on area of lipid accumulation in high-fat-and-cholesterol diet fed Male Bio F1B hamster aortic arch at 3 mg/kg, po relative to control; format: functional, Cricetinae
# Hamster [29] = test: Effect on Plasma triglyceride level in high-fat-and-cholesterol diet fed Male Bio F1B hamster at 3 to 10 mg/kg, po relative to control; format: organism-based; parameters: dose 3-10 mg/kg, route oral; conditions: cricetinae, in vivo
# Hamster [30] = test: Effect on total cholesterol level in high-fat-and-cholesterol diet fed Male Bio F1B hamster plasma at 3 mg/kg, po relative to control; format: functional, Cricetinae
structure (smiles),measurement,setting,value
CCCc1cc2c(C(F)(F)F)cc(=O)oc2c(CCC)c1OCCCCN1C(=O)NC(C)(c2ccc(OC)c(OC)c2)C1=O (centres undefined),EC50,[1]; cho-k1,Not Active
same,EC50,[2]; cho-k1,Not Active
CCCc1cc2c(C(F)(F)F)cc(=O)oc2c(CCC)c1OCCCCN1C(=O)NC(C)(c2ccc3c(c2)OCO3)C1=O (centres undefined),EC50,[2]; read-out: EC50,1200 nM
CCCc1cc2c(C(F)(F)F)cc(=O)oc2c(CCC)c1OCCCCN1C(=O)NC(C)(c2ccc(N(C)C)cc2)C1=O (centres undefined),EC50,[1]; cho-k1,Not Active
same,EC50,[2]; cho-k1,Not Active
CCCc1cc2c(C(F)(F)F)cc(=O)oc2c(CCC)c1OCCCCN1C(=O)NC(C)(c2ccc(C(F)(F)F)cc2)C1=O (centres undefined),EC50,[1]; cho-k1,Not Active
CCCc1cc2c(C(F)(F)F)cc(=O)oc2c(CCC)c1OCCCCN1C(=O)NC(C)(c2ccc([N+](=O)[O-])cc2)C1=O (centres undefined),EC50,[1]; cho-k1,Not Active
same,EC50,[2]; read-out: EC50,8000 nM
CCCc1cc2c(C(F)(F)F)cc(=O)oc2c(CCC)c1OCCCCN1C(=O)NC(C)(c2ccc(C(=O)O)cc2)C1=O (centres undefined),EC50,[1]; cho-k1,Not Active
same,EC50,[2]; cho-k1,Not Active
CCCc1cc2c(C(F)(F)F)cc(=O)oc2c(CCC)c1OCCCCN1C(=O)NC(C)(c2ccc(O)cc2)C1=O (centres undefined),EC50,[1]; cho-k1,Not Active
same,EC50,[2]; cho-k1,Not Active
CCCc1c(OCCCCN2C(=O)CN(C)C2=O)ccc2c(C(F)(F)F)cc(=O)oc12,EC50,[2]; read-out: EC50,1300 nM
CCCc1c(OCCCCN2C(=O)NC(C)(c3ccccc3)C2=O)ccc2c(C(F)(F)F)cc(=O)oc12 (centres undefined),EC50,[1]; cho-k1,Not Active
same,EC50,[2]; read-out: EC50,2000 nM
CCCc1c(OCCCCN2C(=O)NC(C)(c3ccc(OC)cc3)C2=O)ccc2c(C(F)(F)F)cc(=O)oc12 (centres undefined),Activity,Hamster [3],96%
same,Activity,Hamster [4],98%
same,Activity,Hamster [5],101%
same,Activity,Hamster [6],102%
same,Activity,Hamster [7],136%
same,Activity,Hamster [8],115%
same,concentration at 0.5 h,[9],50 ng/mL
same,concentration at 2 h,[10],59 ng/mL
same,Activity,Hamster [11],56%
same,Cp,Syrian golden hamster,Not Active
same,Activity,Hamster [12],96%
same,Activity,Hamster [13],96%
same,Activity,Hamster [14],113%
same,Activity,Hamster [15],131%
same,concentration at 1 h,[16],53 ng/mL
same,Activity,Hamster [17],119%
CCCc1c(OCCCCN2C(=O)NC(C)(c3ccc(OC)c(OC)c3)C2=O)ccc2c(C(F)(F)F)cc(=O)oc12 (centres undefined),EC50,[1]; cho-k1,Not Active
same,EC50,[2]; read-out: EC50,3000 nM
CCCc1c(OCCCCN2C(=O)NC(C)(c3ccc4c(c3)OCO4)C2=O)ccc2c(C(F)(F)F)cc(=O)oc12 (centres undefined),EC50,[2]; read-out: EC50,1100 nM
CCCc1c(OCCCCN2C(=O)NC(C)(c3ccc(C(=O)O)cc3)C2=O)ccc2c(C(F)(F)F)cc(=O)oc12 (centres undefined),EC50,[1]; cho-k1,Not Active
same,EC50,[2]; cho-k1,Not Active
CCCc1c(OCCCCN2C(=O)NC(C)(c3ccc(O)cc3)C2=O)ccc2c(C(F)(F)F)cc(=O)oc12 (centres undefined),EC50,[1]; cho-k1,Not Active
CCCc1c(OCCCN2C(=O)CSC2=O)ccc2c(C(F)(F)F)noc12,EC50,[1]; read-out: EC50,1300 nM
same,EC50,[2]; read-out: EC50,690 nM
O=C(O)Cc1cccc(OCCCN(Cc2cccc(C(F)(F)F)c2Cl)CC(c2ccccc2)c2ccccc2)c1,Ratio,HepG2 [18],3.1
same,EC50,[1]; read-out: EC50,1300 nM
same,fold change (FC),HepG2 [19],4.9
same,EC50,[2]; read-out: EC50,420 nM
same,fold change (FC),HepG2 [20],15
O=S(=O)(c1ccccc1)N(CC(F)(F)F)c1ccc(C(O)(C(F)(F)F)C(F)(F)F)cc1 [T091317],Activity,Hamster [21],243%
same,fold change (FC),Hamster [22],3
same,Activity,Hamster [23],206%
same,Activity,Hamster [24],127%
same,Activity,Hamster [25],67%
same,Activity,Hamster [26],52%
same,Activity,Hamster [27],59%
same,Activity,Hamster [28],53%
same,Activity,Hamster [29],50%
same,Activity,Hamster [30],123%
